A word on the IC50: it is the concentration at which inhibition is half-maximal. A higher IC50 goes with weaker potency.

The assay addresses T1, AHR (UniProt P35869).
T1 sequence (P35869 1-848): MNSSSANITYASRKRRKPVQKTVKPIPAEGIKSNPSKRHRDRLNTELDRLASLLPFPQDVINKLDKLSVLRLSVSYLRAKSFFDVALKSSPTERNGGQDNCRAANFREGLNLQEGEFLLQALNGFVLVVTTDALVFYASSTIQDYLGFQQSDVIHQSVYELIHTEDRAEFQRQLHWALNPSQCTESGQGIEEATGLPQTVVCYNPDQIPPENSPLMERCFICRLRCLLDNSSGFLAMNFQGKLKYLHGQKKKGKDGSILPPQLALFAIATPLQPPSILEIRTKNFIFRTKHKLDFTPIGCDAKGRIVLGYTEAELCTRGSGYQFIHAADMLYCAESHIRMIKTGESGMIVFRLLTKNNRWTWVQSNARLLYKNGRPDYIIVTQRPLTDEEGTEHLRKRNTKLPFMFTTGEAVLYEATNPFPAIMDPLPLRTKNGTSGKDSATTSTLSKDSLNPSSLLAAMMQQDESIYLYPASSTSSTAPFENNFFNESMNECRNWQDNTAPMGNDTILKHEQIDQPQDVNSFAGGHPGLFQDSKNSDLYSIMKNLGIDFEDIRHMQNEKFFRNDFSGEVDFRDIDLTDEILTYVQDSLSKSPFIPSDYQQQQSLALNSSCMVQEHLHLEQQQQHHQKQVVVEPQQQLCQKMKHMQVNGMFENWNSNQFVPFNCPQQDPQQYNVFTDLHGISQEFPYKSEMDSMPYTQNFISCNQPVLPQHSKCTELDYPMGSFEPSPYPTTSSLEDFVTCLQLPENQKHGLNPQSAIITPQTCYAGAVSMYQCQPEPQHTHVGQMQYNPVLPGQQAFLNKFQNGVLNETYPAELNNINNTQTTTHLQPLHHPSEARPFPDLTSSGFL
Briefly: DRE-Luciferase Reporter Assay (Alternate Method), Example 1B. In kind it is cell-based. The note with it: concentration which inhibits half of the luciferase activity induced by AHR activating ligand; DRE-luciferase reporter cell line. The method, then: AHR binds to Dioxin Responsive Elements (DRE) upstream of genes that it activates. One measure of AHR activity is activation of a reporter gene, such as luciferase, downstream of one or multiple DRE elements. Luciferase activity will reflect activation and inhibition of AHR in the cells expressing his reporter.
Murine Hepa1-6 or Hepa-1c1c7 or other murine cell line with a DRE-luciferase reporter either stably or transiently transfected were plated in media in plates (96-well, 384-well or other plates) and incubated overnight at 37° C. in a C02 incubator or compound and agonist were added at the time of plating. Likewise, human HepG2 or other human cell line with a DRE-luciferase reporter either stably or transiently transfected were plated in media in plates (96-well, 384-well or other plates) and incubated overnight at 37° C. in a C02 incubator or compound and agonist were added at the time of plating.
At the time that cells are plated or following incubation overnight, an AHR activating ligand, such as TCDD, kynurenine, ITE (2-(1H-indole-3-ylcarbonyl)-4-thiazolecarboxylic methyl ester), VAF347, BNF (beta-naphthoflavone), FICZ (6-formylindolo(3,2-b) carbazole or other AHR ligands, was added with or without AHR antagonist.
Cells were incubated for 4, 15 or 24 hours or another time point and then lysed for determination of luciferase activity as a read-out of the AHR activation or inhibition. Luciferase was measured with a commercial kit such as the Promega Luciferase kit or any kit or reagents that provide the luciferin substrate for measuring luciferase activity. The level of luciferase with only activating ligand added was the maximum signal while the luciferase with no ligand was the minimum signal. IC50 values were determined as the concentration which inhibits half of the luciferase activity.
(In general: In a reporter assay the amount or activity of a reporter protein is the signal.)
`CC(C)c1cnn2c(N[C@@H]3CCc4[nH]c5ccccc5c4C3)nc(-c3ccn(C)c(=O)c3)nc12` [Compound I-1, 4-[8-Isopropyl-4-[[(3R)-2,3,4,9-tetrahydro-1H-carbazol-3-yl]amino]pyrazolo[1,5-a][1,3,5]triazin-2-yl]-1-methyl-pyridin-2-one] had a half-inhibitory concentration (IC50) above 1.5 µM.
The figure for `CC(C)c1cnn2c(N[C@@H]3CCc4[nH]c5ccccc5c4C3)nc(-c3ccc(N4CCOCC4)nc3)nc12` [Compound I-2, (3R)—N-[8-Isopropyl-2-(6-morpholino-3-pyridyl)pyrazolo[1,5-a][1,3,5]triazin-4-yl]-2,3,4,9-tetrahydro-1H-carbazol-3-amine] is above 1.5 µM.
Take `COc1cncc(-c2nc(N[C@@H]3CCc4[nH]c5ccccc5c4C3)n3ncc(C(C)C)c3n2)c1` [Compound I-3, (3R)—N-[8-Isopropyl-2-(5-methoxy-3-pyridyl)pyrazolo[1,5-a][1,3,5]triazin-4-yl]-2,3,4,9-tetrahydro-1H-carbazol-3-amine]: the half-inhibitory concentration (IC50) was above 1.5 µM.
Consider `NCc1cnn2c(N[C@@H]3CCc4[nH]c5ccccc5c4C3)nc(-c3cncc(F)c3)nc12` [Compound I-4, (3R)—N-[8-(Aminomethyl)-2-(5-fluoro-3-pyridyl)pyrazolo[1,5-a][1,3,5]triazin-4-yl]-2,3,4,9-tetrahydro-1H-carbazol-3-amine], for which the half-inhibitory concentration (IC50) was below 0.5 µM.
For the compound `CC(C)c1cnn2c(N[C@@H]3CCc4[nH]c5ccccc5c4C3)nc(-c3cncc(N(C)C)c3)nc12` [Compound I-5, (3R)—N-[2-[5-(Dimethylamino)-3-pyridyl]-8-isopropyl-pyrazolo[1,5-a][1,3,5]triazin-4-yl]-2,3,4,9-tetrahydro-1H-carbazol-3-amine], the IC50 is above 1.5 µM.
Under `CC(C)c1cnn2c(N[C@@H]3CCc4[nH]c5ccccc5c4C3)nc(-c3ccc(N(C)C)nc3)nc12` [Compound I-6, (3R)—N-[2-[6-(dimethylamino)-3-pyridyl]-8-isopropyl-pyrazolo[1,5-a][1,3,5]triazin-4-yl]-2,3,4,9-tetrahydro-1H-carbazol-3-amine] stands above 1.5 µM; under `CC(C)c1cnn2c(N[C@@H]3CCc4[nH]ncc4C3)nc(-c3cncc(F)c3)nc12` [Compound I-7a, 2-(5-fluoro-3-pyridyl)-8-isopropyl-N-[(5R)-4,5,6,7-tetrahydro-1H-indazol-5-yl]pyrazolo[1,5-a][1,3,5]triazin-4-amine], above 1.5 µM; under `CC(C)c1cnn2c(N[C@H]3CCc4[nH]ncc4C3)nc(-c3cncc(F)c3)nc12` [Compound I-7b, 2-(5-fluoro-3-pyridyl)-8-isopropyl-N-[(5S)-4,5,6,7-tetrahydro-1H-indazol-5-yl]pyrazolo[1,5-a][1,3,5]triazin-4-amine], 1 to 1.5 µM.
The figure for `CC(C)c1cnn2c(N[C@H]3CCc4[nH]c5cccnc5c4C3)nc(-c3cncc(F)c3)nc12` [Compound I-8a, (8S)—N-[2-(5-Fluoro-3-pyridyl)-8-isopropyl-pyrazolo[1,5-a][1,3,5]triazin-4-yl]-6,7,8,9-tetrahydro-5H-pyrido[3,2-b]indol-8-amine] is 1 to 1.5 µM; for `CC(C)c1cnn2c(N[C@@H]3CCc4[nH]c5cccnc5c4C3)nc(-c3cncc(F)c3)nc12` [Compound I-8b, (8R)—N-[2-(5-Fluoro-3-pyridyl)-8-isopropyl-pyrazolo[1,5-a][1,3,5]triazin-4-yl]-6,7,8,9-tetrahydro-5H-pyrido[3,2-b]indol-8-amine] it is 1 to 1.5 µM.
Under `CC(C)(O)c1cnn2c(N[C@@H]3CCc4[nH]c5ccccc5c4C3)nc(-c3cncc(F)c3)nc12` [Compound I-9, 2-[2-(5-Fluoro-3-pyridyl)-4-[[(3R)-2,3,4,9-tetrahydro-1H-carbazol-3-yl]amino]pyrazolo[1,5-a][1,3,5]triazin-8-yl]propan-2-ol] stands below 0.5 µM; under `Fc1cncc(-c2nc(N[C@@H]3CCc4[nH]c5ccccc5c4C3)n3ncc(-c4cnn[nH]4)c3n2)c1` [Compound I-10, (3R)—N-[2-(5-Fluoro-3-pyridyl)-8-(1H-triazol-5-yl)pyrazolo[1,5-a][1,3,5]triazin-4-yl]-2,3,4,9-tetrahydro-1H-carbazol-3-amine], below 0.5 µM.
Regarding `C=C(C)c1cnn2c(N[C@@H]3CCc4[nH]c5ccccc5c4C3)nc(-c3cncc(F)c3)nc12` [Compound I-11, (3R)—N-[2-(5-Fluoro-3-pyridyl)-8-isopropenyl-pyrazolo[,5-a][1,3,5]triazin-4-yl]-2,3,4,9-tetrahydro-1H-carbazol-3-amine], the IC50 was below 0.5 µM.
Take `CC(C)c1cnn2c(N[C@@H]3CCc4[nH]c5ccccc5c4C3)nc(-n3cnc4ccccc43)nc12` [Compound I-12, (3R)—N-[2-(Benzimidazol-1-yl)-8-isopropyl-pyrazolo[1,5-a][1,3,5]triazin-4-yl]-2,3,4,9-tetrahydro-1H-carbazol-3-amine]: the IC50 was 1 to 1.5 µM.
Regarding `CC(C)c1cnn2c(N[C@@H]3CCc4[nH]c5cnccc5c4C3)nc(-c3cncc(F)c3)nc12` [Compound I-13a, (6R)—N-[2-(5-fluoro-3-pyridyl)-8-isopropyl-pyrazolo[1,5-a][1,3,5]triazin-4-yl]-6,7,8,9-tetrahydro-5H-pyrido[3,4-b]indol-6-amine], the IC50 was above 1.5 µM.
Under `CC(C)c1cnn2c(N[C@H]3CCc4[nH]c5cnccc5c4C3)nc(-c3cncc(F)c3)nc12` [Compound I-13b, (6S)—N-[2-(5-fluoro-3-pyridyl)-8-isopropyl-pyrazolo[1,5-a][1,3,5]triazin-4-yl]-6,7,8,9-tetrahydro-5H-pyrido[3,4-b]indol-6-amine] stands above 1.5 µM.
Under `Cc1cnc2c(N[C@@H]3CCc4[nH]c5ccccc5c4C3)nc(-c3cncc(F)c3)nc2c1` [Compound I-14, (3R)—N-[2-(5-fluoro-3-pyridyl)-7-methyl-pyrido[3,2-d]pyrimidin-4-yl]-2,3,4,9-tetrahydro-1H-carbazol-3-amine] stands 1 to 1.5 µM; under `CC(C)c1cnn2c(N[C@@H]3CCc4[nH]c5ccccc5c4C3)nc([C@@H]3CCCOC3)nc12` [Compound I-15a, (3R)—N-(8-isopropyl-2-tetrahydropyran-3-yl-pyrazolo[1,5-a][1,3,5]triazin-4-yl)-2,3,4,9-tetrahydro-1H-carbazol-3-amine], above 1.5 µM.
Take `CC(C)c1cnn2c(N[C@@H]3CCc4[nH]c5ccccc5c4C3)nc([C@H]3CCCOC3)nc12` [Compound I-15b, (3R)—N-[8-isopropyl-2-[(3R)-tetrahydropyran-3-yl]pyrazolo[1,5-a][1,3,5]triazin-4-yl]-2,3,4,9-tetrahydro-1H-carbazol-3-amine]: the IC50 was above 1.5 µM.
Under `CC(C)c1cnn2c(N[C@@H]3CCc4[nH]c5ccccc5c4C3)nc(-n3cncn3)nc12` [Compound I-16, (3R)—N-[8-Isopropyl-2-(1,2,4-triazol-1-yl)pyrazolo[1,5-a][1,3,5]triazin-4-yl]-2,3,4,9-tetrahydro-1H-carbazol-3-amine] stands above 1.5 µM.
Under `CC(C)c1cnn2c(N[C@@H]3CCc4[nH]c5ccccc5c4C3)nc(C3CCOC3)nc12` (stereo partly drawn) [Compound I-17, (3R)—N-(8-isopropyl-2-tetrahydrofuran-3-yl-pyrazolo[1,5-a][1,3,5]triazin-4-yl)-2,3,4,9-tetrahydro-1H-carbazol-3-amine] stands 0.5 to 1 µM; under `Fc1cncc(-c2nc(N[C@@H]3CCc4[nH]c5ccccc5c4C3)n3ncc(C4CCOC4)c3n2)c1` (stereo partly drawn) [Compound I-18, (3R)—N-[2-(5-fluoro-3-pyridyl)-8-tetrahydrofuran-3-yl-pyrazolo[1,5-a][1,3,5]triazin-4-yl]-2,3,4,9-tetrahydro-1H-carbazol-3-amine], below 0.5 µM.
On to `Cc1nccn1-c1nc(N[C@@H]2CCc3[nH]c4ccccc4c3C2)n2ncc(C(C)C)c2n1` [Compound I-19, (3R)—N-[8-Isopropyl-2-(2-methylimidazol-1-yl)pyrazolo[1,5-a][1,3,5]triazin-4-yl]-2,3,4,9-tetrahydro-1H-carbazol-3-amine], for which the IC50 was above 1.5 µM.

The record behind these values is patent US20220144839A1, “INDOLE AHR INHIBITORS AND USES THEREOF” (Ikena Oncology, Inc., priority 2018, published 2022).
